Measured values taken from paper PMC10413907 (Journal of Evidence-based Integrative Medicine, 2023).
Values joined by “and” are separate entries in the source; they are usually repeats but may differ in a detail not shown here. Equal entries are not always repeated. Where two headings read alike, the source gives them in different places.

Columns and labels:
[1] = system: PBMCs (from healthy subjects); assay: MTT cell proliferation assay, PBMCs; format: cell-based, human
HaCaT cells = assay: MTT cell proliferation assay, HaCaT; format: cell-based, human; conditions: 48 h, median (range)
recombinant human CYP1A2 = molecular target: T1, recombinant human CYP1A2 (Homo sapiens, UniProt P05177); assay: P450-Glo bioluminescent CYP450 inhibition assay; format: in vitro ADME
T1 sequence (P05177 1-516): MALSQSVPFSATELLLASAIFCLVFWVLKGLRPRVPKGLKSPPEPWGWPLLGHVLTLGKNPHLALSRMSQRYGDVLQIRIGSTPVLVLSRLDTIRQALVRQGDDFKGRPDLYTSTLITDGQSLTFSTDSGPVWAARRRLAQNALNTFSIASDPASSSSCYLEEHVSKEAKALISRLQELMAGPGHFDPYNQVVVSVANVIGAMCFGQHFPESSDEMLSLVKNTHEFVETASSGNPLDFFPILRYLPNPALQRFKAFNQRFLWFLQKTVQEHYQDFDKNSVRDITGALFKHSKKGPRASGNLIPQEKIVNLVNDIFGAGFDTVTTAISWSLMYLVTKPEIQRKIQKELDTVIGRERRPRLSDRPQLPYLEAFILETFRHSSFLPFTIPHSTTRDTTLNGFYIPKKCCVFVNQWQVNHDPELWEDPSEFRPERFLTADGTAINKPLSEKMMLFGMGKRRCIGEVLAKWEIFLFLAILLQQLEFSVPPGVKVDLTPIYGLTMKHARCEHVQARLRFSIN

[2] = molecular target: recombinant human CYP2C19 (Homo sapiens, UniProt P33261); assay: P450-Glo bioluminescent CYP450 inhibition assay; format: in vitro ADME
Chain of recombinant human CYP2C19 (P33261 whole entry): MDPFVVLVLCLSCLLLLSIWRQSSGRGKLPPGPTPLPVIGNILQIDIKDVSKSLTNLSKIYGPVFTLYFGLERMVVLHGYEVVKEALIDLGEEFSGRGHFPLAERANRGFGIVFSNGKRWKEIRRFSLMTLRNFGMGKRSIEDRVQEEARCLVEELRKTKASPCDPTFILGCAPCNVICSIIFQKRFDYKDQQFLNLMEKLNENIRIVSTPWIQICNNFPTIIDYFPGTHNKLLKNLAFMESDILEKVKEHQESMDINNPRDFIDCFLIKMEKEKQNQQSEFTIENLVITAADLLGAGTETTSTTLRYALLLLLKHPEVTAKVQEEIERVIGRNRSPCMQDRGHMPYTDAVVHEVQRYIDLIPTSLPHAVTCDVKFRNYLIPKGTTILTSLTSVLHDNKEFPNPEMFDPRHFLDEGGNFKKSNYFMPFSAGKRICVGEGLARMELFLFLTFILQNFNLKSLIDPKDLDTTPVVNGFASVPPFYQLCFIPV

recombinant human CYP3A4 = recombinant human CYP3A4 (Homo sapiens, UniProt P08684); assay: P450-Glo bioluminescent CYP450 inhibition assay; format: in vitro ADME
Chain of recombinant human CYP3A4 (P08684 whole entry): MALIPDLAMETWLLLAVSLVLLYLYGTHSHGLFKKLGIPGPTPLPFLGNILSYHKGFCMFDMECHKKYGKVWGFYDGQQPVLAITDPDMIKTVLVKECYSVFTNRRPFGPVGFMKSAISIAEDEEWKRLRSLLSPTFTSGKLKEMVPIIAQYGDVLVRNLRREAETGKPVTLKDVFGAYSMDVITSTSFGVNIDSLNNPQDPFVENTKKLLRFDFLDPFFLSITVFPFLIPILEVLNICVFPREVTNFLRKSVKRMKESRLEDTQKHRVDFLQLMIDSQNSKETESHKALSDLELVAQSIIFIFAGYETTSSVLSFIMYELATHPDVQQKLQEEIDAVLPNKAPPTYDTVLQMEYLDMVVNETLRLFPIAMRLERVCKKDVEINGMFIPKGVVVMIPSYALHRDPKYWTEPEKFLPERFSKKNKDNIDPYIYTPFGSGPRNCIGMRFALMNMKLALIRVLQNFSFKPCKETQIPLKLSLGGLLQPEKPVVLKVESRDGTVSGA

IL-6 mRNA = assay: Pro-inflammatory cytokine mRNA expression; format: cell-based, human; conditions: PBMCs from psoriasis patients vs healthy subjects; 48 h; IC50
IL-23A mRNA = assay: Pro-inflammatory cytokine mRNA expression; format: cell-based, human; conditions: PBMCs from psoriasis patients vs healthy subjects, 48 h
IL-12p19 mRNA = assay: Pro-inflammatory cytokine mRNA expression; format: cell-based, human; conditions: PBMCs from psoriasis patients vs healthy subjects
[3] = system: PBMCs from psoriasis patients and healthy subjects; assay: Cell apoptosis/necrosis, FITC-Annexin V/PI flow cytometry, PBMCs; format: cell-based, human; conditions: 48 h exposure; for proportions of PBMCs with early apoptosis, psoriasis patients compared with healthy volunteers: both concentrations
recombinant human CYP2C9 = recombinant human CYP2C9 (Homo sapiens, UniProt P11712); assay: P450-Glo bioluminescent CYP450 inhibition assay
Chain of recombinant human CYP2C9 (P11712 whole entry): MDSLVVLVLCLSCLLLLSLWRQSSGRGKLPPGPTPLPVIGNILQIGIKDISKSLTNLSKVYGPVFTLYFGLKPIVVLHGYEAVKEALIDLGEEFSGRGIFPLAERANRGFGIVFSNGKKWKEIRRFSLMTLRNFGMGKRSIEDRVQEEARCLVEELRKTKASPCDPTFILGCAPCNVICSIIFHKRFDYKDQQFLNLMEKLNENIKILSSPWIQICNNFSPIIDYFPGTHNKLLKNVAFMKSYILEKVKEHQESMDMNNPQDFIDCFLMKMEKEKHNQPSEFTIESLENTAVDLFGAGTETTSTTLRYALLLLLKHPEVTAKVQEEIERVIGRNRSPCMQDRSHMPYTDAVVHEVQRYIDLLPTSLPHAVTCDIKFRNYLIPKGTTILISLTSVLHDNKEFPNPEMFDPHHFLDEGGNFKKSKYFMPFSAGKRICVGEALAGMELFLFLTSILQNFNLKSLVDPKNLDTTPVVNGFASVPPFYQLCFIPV

recombinant human CYP2D6 = recombinant human CYP2D6 (Homo sapiens, UniProt P10635); assay: P450-Glo bioluminescent CYP450 inhibition assay
Chain of recombinant human CYP2D6 (P10635 whole entry): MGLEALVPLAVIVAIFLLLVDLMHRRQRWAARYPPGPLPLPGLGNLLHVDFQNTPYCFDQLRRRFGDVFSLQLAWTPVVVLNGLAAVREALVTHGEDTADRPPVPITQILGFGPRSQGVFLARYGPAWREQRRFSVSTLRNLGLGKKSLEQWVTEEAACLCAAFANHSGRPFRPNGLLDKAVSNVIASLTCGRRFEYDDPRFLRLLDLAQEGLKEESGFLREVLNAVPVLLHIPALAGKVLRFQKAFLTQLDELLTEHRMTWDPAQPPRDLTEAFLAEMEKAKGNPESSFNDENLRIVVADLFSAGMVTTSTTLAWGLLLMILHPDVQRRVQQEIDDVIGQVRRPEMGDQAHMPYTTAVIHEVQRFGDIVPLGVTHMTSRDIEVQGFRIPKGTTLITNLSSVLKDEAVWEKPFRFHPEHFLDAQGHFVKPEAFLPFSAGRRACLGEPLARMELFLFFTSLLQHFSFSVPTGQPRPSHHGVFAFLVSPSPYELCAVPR

TNF-α mRNA = assay: Pro-inflammatory cytokine mRNA expression; format: cell-based, human; conditions: PBMCs from psoriasis patients vs healthy subjects; 48 h; IC25
[4] = system: PBMCs from psoriasis patients and healthy subjects; assay: Cell cycle analysis by flow cytometry; format: cell-based, human; conditions: PBMCs from patients with psoriasis; 24 h; both concentrations
[5] = read-out: CYP1A2 IC50, median (range), unit of the reference inhibitor
[6] = read-out: CYP1A2 inhibitory potency class, class by IC50
[7] = read-out: CYP2C19 IC50, median (range), unit of the reference inhibitor
[8] = read-out: CYP2C19 inhibitory potency class, class by IC50
[9] = read-out: CYP3A4 IC50, median (range), unit of the reference inhibitor
[10] = read-out: CYP3A4 inhibitory potency class, class by IC50
[11] = read-out: CYP2C9 IC50, median (range), unit of the reference inhibitor
[12] = read-out: CYP2C9 inhibitory potency class, class by IC50
[13] = read-out: CYP2D6 IC50, median (range), unit of the reference inhibitor
[14] = read-out: CYP2D6 inhibitory potency class, class by IC50

Row | IC50 (recombinant human CYP1A2; [5]) | IC50 (recombinant human CYP1A2; [6]) | IC50 [2, 7] | IC50 [2, 8] | IC50 (recombinant human CYP3A4; [9]) | IC50 (recombinant human CYP3A4; [10]) | IC50 (recombinant human CYP2C9; [11]) | IC50 (recombinant human CYP2C9; [12]) | CYP2D6 inhibitory potency class (recombinant human CYP2D6; class by IC50) | IC50 (recombinant human CYP2D6; [13]) | IC50 (recombinant human CYP2D6; [14]) | SMILES | PBMCs IC25 ([1]; 48 h, median (range)) | HaCaT IC25 (HaCaT cells; MTT) | IL-6 mRNA expression (IL-6 mRNA) | proportions of PBMCs with early apoptosis, psoriasis patients compared with healthy volunteers [3] | other results
1 | 118 µM | > 50 µM | 80.4 µM | > 50 µM | 865 µM | > 50 µM | 87.5 µM | > 50 µM | moderately inhibited | 17.8 µM | 10 to 50 µM | CCOC(=O)C=Cc1ccc(OC)cc1 [EPMC, ethyl-p-methoxycinnamate] | 254 (234-258) μM | 432 (395-458) μM | reduced | significantly lower | PBMCs IC50 ([1]; 48 h, median (range)): 63.09 µg/mL; IC50 ([1]; read-out: PBMCs IC50, 48 h, median (range)): 306 µM and 305 µM; HaCaT IC50 (HaCaT cells; MTT): 114.25 µg/mL; IC50 (HaCaT cells; read-out: HaCaT IC50, MTT): 554 µM; IL-23A mRNA expression (IL-23A mRNA; IC50): reduced; IL-12p19 mRNA expression (IL-12p19 mRNA; 24 h, only at IC50): downregulating
2 | 5250 µM | > 50 µM | 1450 µM | > 50 µM | 1150 µM | > 50 µM | 469 µM | > 50 µM | moderately inhibited | 11.4 µM | 10 to 50 µM | COc1cc(/C=C/C(=O)O)ccc1O [Ferulic acid, ferulic acid] |  |  |  |  | 
3 |  |  |  |  |  |  |  |  |  |  |  | CCC/C=C1\OC(=O)C2=C1CCC=C2 [Ligustilide, ligustilide] | 105 (101-106) μM | 151 (138-155) μM | downregulating | significantly lower | IC50 (HaCaT cells; Homo sapiens, HaCaT, read-out: HaCaT IC50, MTT, 48 h): 188 µM and 35.8 µg/mL; IC50 (recombinant human CYP1A2): 10 to 50 µM; CYP1A2 inhibitory potency class (recombinant human CYP1A2; class by IC50): moderately inhibited; IC50 ([2]; CYP2C19 IC50, median (range), unit of the reference inhibitor): 89.2 µM; IC50 ([2]; CYP2C19 inhibitory potency class, class by IC50): > 50 µM; IC50 (recombinant human CYP3A4; CYP3A4 IC50, median (range), unit of the reference inhibitor): 39.8 µM; IC50 (recombinant human CYP3A4; CYP3A4 inhibitory potency class, class by IC50): 10 to 50 µM; CYP3A4 inhibitory potency class (recombinant human CYP3A4; class by IC50): moderately inhibited; IL-23A mRNA expression (IL-23A mRNA; IC25): downregulated; TNF-α mRNA expression (TNF-α mRNA): downregulated; IL-12p19 mRNA expression (IL-12p19 mRNA; 48 h, IC25): downregulated; phase of cell cycle arrest [4]: S phase; proportions of living PBMCs from psoriasis patients compared with PBMCs from healthy volunteers [3]: significantly higher; IC50 (recombinant human CYP2C9; CYP2C9 IC50, median (range), unit of the reference inhibitor): 114 µM; IC50 (recombinant human CYP2C9; CYP2C9 inhibitory potency class, class by IC50): > 50 µM; IC50 (recombinant human CYP2D6; CYP2D6 IC50, median (range), unit of the reference inhibitor): 218 µM; IC50 (recombinant human CYP2D6; CYP2D6 inhibitory potency class, class by IC50): > 50 µM
